Measurements published in patent US6894161B2, “Methods and compositions for photo-cross linking photoactive compounds to target tissue” (The University of British Columbia, priority 2001, dated 2005).

Assay: Cyclic voltammetry, redox potentials
Type: physicochemical
Settings: dichloromethane at 22° C. versus Fc
Description: Without being bound by theory, it is believed that the observed photochemical reaction with long wavelength light is not the result of intramolecular energy transfer from the porphyrin to the pyrazoline because estimations indicate that it would be an extremely endothermic process. With respect to the possibility that a photoinduced electron transfer may be responsible, it is first noted that there is no precedence for this reaction with pyrazolines. If the porphyrin and pyrazoline are considered as separate molecules, however, the estimation of the feasibility of an electron transfer process may be conducted as follows. Generally, a photochemical electron transfer occurs only when it is exergonic or <5 kcal mol^−1 endergonic (Eberson, L. Electron Transfer Reactions in Organic Chemistry, Springer-Verlag: Berlin Germany, 1987). The free energy change for a photoinduced electron transfer can be determined from the oxidation potential of the electron donor (E°D), the reduction potential of the electron acceptor (E°A) and the excited state energy of the sensitizer (E0,0), using the relationship ΔGET=23.06 kcal mol^−1[(E°D−E°A)−E0,0]−C; where C is a term that accounts for solvation. In order to estimate the feasibility of electron transfer using this relationship, the redox properties of the molecules must be known. The starting materials MePPP (18), the pyrazoline (19), and the photoproduct cyclopropane (20) have reduction and oxidation potentials as shown in Table 2.
The radical anions and dianions are therefore stable on the time scale of these experiments, with no chemistry occurring on addition of electrons to these molecules. If any chemical reactions were occurring from the radical anion or dianion, the CV's would be irreversible. […] On reduction, two consecutive electrons are accepted by the porphyrin macrocycle in each of 18, 19 and 20. The oxidations are also reversible; the only notable feature of the oxidation potentials is that 19 and 20 are somewhat easier to oxidize than MePPP. […]

C=Cc1c(C)c2cc3nc(c4c5[nH]c(cc6nc(cc1[nH]2)C(C)=C6CC)c(C)c5C(=O)C4)C(CCC(=O)OC)C3C (stereo not drawn) [Compound 18, Methylpyropheophorbide]
Oxidation 1 (redox potential): 0.61
Reduction 1 (redox potential): −1.47
Reduction 2 (redox potential): −1.73
